Patent US20160207930A1 (LEO PHARMA A/S, priority 2013, published 2016)

Experiments:
[1] = molecular target: T1, NK1 Receptor (Homo sapiens, UniProt P25103); experiment: NK1 receptor mediated intracellular [Ca2+] mobilization in U251 MG cells using FLIPR; assay type: cell-based; conditions: antagonism of Substance P (EC80), Fluo-4, read-out: NK1R mediated intracellular [Ca^2+] mobilization IC 50
T1 construct: Measurement of NK1 Receptor Mediated Intracellular [Ca^2+]; Mobilization in U251 MG Cells Using FLIPR; endogenous in cells; host or cells: U251 MG cells
Description: Measurement of NK1 Receptor Mediated Intracellular [Ca^2+] Mobilization in U251 MG Cells Using FLIPR
U251 MG cells were seeded into black walled clear-bottom 384-well plates (Greiner Bio-One GmbH, Frickenhausen, Germany) at a density of 15,000 cells/well in 50 μl culture medium and cultured overnight in a 37° C. 5% CO2 incubator. The cells were then loaded with the calcium sensitive dye Fluo-4 (Invitrogen) at 1 μM in buffer, containing 0.04% Pluronic F-127 (Sigma-Aldrich), and 2.5 mM probenecid (Sigma-Aldrich) for 60 min in a humidified atmosphere of 5% CO2. Thereafter, cells were washed three times in washing buffer containing 20 mM HEPES and 2.5 mM probenecid pH 7.3. Serial dilutions of test compounds in assay buffer containing 2% dimethyl sulfoxide (final concentration in the cell plate is 0.5% DMSO) and/or agonist were then automatically pipetted into each test well, and the peak fluorescence intensity was recorded (lex, 488 nm; lem, 540 nm) by the FLIPR instrument (Molecular Devices) for approximately 5 min. To measure antagonist potency, cell plates were first incubated with the test compound and intracellular fluorescence recorded for 5 minutes to check a potential agonist effect of the test compound. Cell plates were quickly removed from the FLIPR instrument and incubated for additional 10 minutes at 37° C. before being moved back to the FLIPR instrument for Substance P (EC80) addition. The response was measured as the peak relative fluorescence change after agonist addition.
Compound relative %-effect was normalized to the maximal response evoked by 100 nM Aprepitant in presence of the EC80 of Substance P and the antagonist potency determined by non-linear regression using GraphPad Prism (version 5) or the four-parameter logistic model in XLfit (IDBS, Guilford, UK) for Microsoft Excel (Microsoft, Redmond, Wash.). The IC50 value is defined as the molar concentration of a test compound that produces a response midway between the fitted top and the fitted bottom. pIC50=−log IC50
Formula is listed as follows:
Fit (% Effect calculated)=(A+((B−A)/(1+((C/X)̂D)))) • A: bottom value • B: top value • C: test compound concentration • X: Relative IC50 • D: Hill slope coefficient
Ref: Sullivan E, Tucker E M, and Dale I L. Measurement of [Ca^2+] using the Fluorometric Imaging Plate Reader (FLIPR). Methods Mol Biol 114:125-133, 1999.
Compounds of the present invention were tested according to example 100.

[2] = Hepatic intrinsic clearance following incubation in human liver microsomes; assay type: in vitro ADME; conditions: 0.5 μM test compound, NADPH, 0-30 min, scaled to g liver
Description: Hepatic Extraction Ratio from Hepatic Intrinsic Clearance Following Incubation in Human Liver Microsomes
The general procedure consists of an automated incubation system and LC-MS/MS analysis with human liver microsomes. Human liver microsomes are thawed rapidly in a waterbath at 37° C. and kept on ice until use. The human liver microsomes are diluted with 50 mM potassium phosphate buffer pH 7.4 to a protein concentration of 0.55 mg/mL. Test compounds and positive controls (Verapamil and Dextromethorphan, positive controls for CYP3A4 for CYP2D6 isoforms, respectively) are dissolved in methanol (or other appropriate solvent, if necessary) in order to obtain a 5 mM solution which is further diluted to the concentration of 50 μM. The stock solutions are prepared immediately before the test.
5 μL of 50 μM test compounds and controls are added to 445 μL-of the 0.55 mg/mL microsomes solution and the incubation mixture are pre-warmed at 37° C. for 5 minutes. The incubation reactions are initiated by adding 50 μL of pre-warmed NADPH regenerating system to the incubation mixtures. 50 μL-aliquots will be taken from the incubation mixtures at: 0, 3, 6, 9, 15 and 30 minutes and the reactions are stopped by adding 100 μL of ACN containing Rolipram, used as generic Internal Standard (IS). Samples are then diluted with 120 μL of Milli-Q water and centrifuged at 3000 rpm for 10 minutes, prior the LC-MS/MS analysis.
The integrated peak areas for test compounds at the selected time points are divided by the respective peak areas of the IS and the percent of parent remaining is calculated by normalizing the peak area ratio of parent to IS at 0 min. Observed rate constant (kobs) for parent degradation is calculated by determining the slope of the line of the graph of the natural log of percentage parent remaining versus time of incubation. From the rate of depletion (min−1) and volume of the incubation (mL), clearance is estimated. This is scaled for the protein in the incubation relative to that in the intact liver, for all species (mL/min/g liver).
Values for the Human in vitro Clint are expressed as mL/min/g liver.
Assuming a liver weight of 25.7 g/kg and a liver blood flow of 20.7 mL/min/kg, the hepatic extraction ratio, Eh, can be derived from the Human in vitro Clint:
E.g. a Human in vitro Clint of 2.4 mL/min/g liver corresponds to a hepatic extraction ratio of 75%.
Some compounds of the present invention were tested according to example 101.

T1 sequence (P25103 whole entry): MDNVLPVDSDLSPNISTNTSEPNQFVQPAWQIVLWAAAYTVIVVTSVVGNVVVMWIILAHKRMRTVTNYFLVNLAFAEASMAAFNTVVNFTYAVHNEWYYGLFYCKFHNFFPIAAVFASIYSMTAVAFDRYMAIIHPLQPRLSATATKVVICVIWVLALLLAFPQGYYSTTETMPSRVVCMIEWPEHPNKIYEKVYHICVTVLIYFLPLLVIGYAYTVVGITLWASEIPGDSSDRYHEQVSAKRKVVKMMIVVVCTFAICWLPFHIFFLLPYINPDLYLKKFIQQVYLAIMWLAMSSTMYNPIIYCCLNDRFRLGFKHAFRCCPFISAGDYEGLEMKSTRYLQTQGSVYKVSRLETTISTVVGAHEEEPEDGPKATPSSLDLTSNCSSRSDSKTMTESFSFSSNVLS

Row | IC50 [1] | Human in vitro Clint [2] | Compound
1 | 0.297 nM | >200 mL/min/g | Cc1ccc([C@@H]2[C@H]3CCC(=O)N3CCN2C(=O)N(C)Cc2cc(C(F)(F)F)cc(C(F)(F)F)c2)c(C)c1 (racemic) [Compound 3, N-(3,5-bis(trifluoromethyl)benzyl)-1-(2,4-dimethylphenyl)-N-methyl-6-oxohexahydropyrrolo[1,2-a]pyrazine-2(1H)-carboxamide]
2 | 0.096 nM | >200 mL/min/g | Cc1cc([C@@H](C)N(C)C(=O)N2CCN3C(=O)C(CCO)(CCO)CC3C2c2ccc(C)cc2C)cc(C(F)(F)F)c1 (mixture of isomers) [Compound 8, 1-(2,4-dimethylphenyl)-7,7-bis(2-hydroxyethyl)-N-methyl-N—((R)-1-(3-methyl-5-(trifluoromethyl)phenyl)ethyl)-6-oxo-hexahydropyrrolo[1,2-a]pyrazine-2(1H)-carboxamide]
3 | 0.18 nM | >200 mL/min/g | Cc1ccc([C@@H]2[C@H]3CC(CCO)(CCO)C(=O)N3CCN2C(=O)N(C)Cc2cc(C(F)(F)F)cc(C(F)(F)F)c2)c(C)c1 (racemic) [Compound 9, N-(3,5-bis(trifluoromethyl)benzyl)-1-(2,4-dimethylphenyl)-7,7-bis(2-hydroxyethyl)-N-methyl-6-oxohexahydropyrrolo[1,2-a]pyrazine-2(1H)-carboxamide]
4 | 0.154 nM | >200 mL/min/g | Cc1ccc(C2C3CCC(=O)N3CCN2C(=O)N(C)[C@H](C)c2cc(C(F)(F)F)cc(C(F)(F)F)c2)c(C)c1 (single isomer, unassigned) [Compound 1]
5 | 7.79 nM | >200 mL/min/g | Cc1ccc(C2C3CCC(=O)N3CCN2C(=O)N(C)[C@H](C)c2cc(C(F)(F)F)cc(C(F)(F)F)c2)c(C)c1 (single isomer, unassigned) [Compound 2]
6 | 9.26 nM | >200 mL/min/g | Cc1cc([C@@H](C)N(C)C(=O)N2CCN3C(=O)CCC3C2c2ccc(C)cc2C)cc(C(F)(F)F)c1 (single isomer, unassigned) [Compound 4]
7 | 0.02 nM |  | C[C@H](c1cc(C(F)(F)F)cc(C(F)(F)F)c1)N(C)C(=O)N1CCN2C(=O)CC[C@H]2[C@@H]1c1ccccc1Cl (single isomer, unassigned) [Compound 72]
8 | 1.38 nM |  | C[C@H](c1cc(C(F)(F)F)cc(C(F)(F)F)c1)N(C)C(=O)N1CCN2C(=O)CC[C@H]2[C@@H]1c1ccccc1Cl (single isomer, unassigned) [Compound 73]
9 | 0.06 nM |  | C[C@H](c1cc(C(F)(F)F)cc(C(F)(F)F)c1)N(C)C(=O)N1CCN2C(=O)CC[C@H]2[C@@H]1c1ccc(F)cc1Cl (single isomer, unassigned) [Compound 83]
10 | 1.15 nM |  | C[C@H](c1cc(C(F)(F)F)cc(C(F)(F)F)c1)N(C)C(=O)N1CCN2C(=O)CC[C@H]2[C@@H]1c1ccc(F)cc1Cl (single isomer, unassigned) [Compound 84]
11 | 2.97 nM |  | Cc1cccnc1[C@H]1[C@@H]2CCC(=O)N2CCN1C(=O)N(C)[C@H](C)c1cc(C(F)(F)F)cc(C(F)(F)F)c1 [Compound 43, (1R,8aS)—N—((R)-1-(3,5-bis(trifluoromethyl)phenyl)ethyl)-N-methyl-1-(3-methylpyridin-2-yl)-6-oxo-hexahydropyrrolo[1,2-a]pyrazine-2(1H)-carboxamide]
12 | 0.893 nM |  | Cc1ncccc1[C@H]1[C@@H]2CCC(=O)N2CCN1C(=O)N(C)[C@H](C)c1cc(C(F)(F)F)cc(C(F)(F)F)c1 [Compound 47, (1S,8aS)—N—((R)-1-(3,5-bis(trifluoromethyl)phenyl)ethyl)-N-methyl-1-(2-methylpyridin-3-yl)-6-oxo-hexahydropyrrolo[1,2-a]pyrazine-2(1H)-carboxamide]
13 | 31.8 nM |  | Cc1n[nH]cc1[C@H]1[C@@H]2CCC(=O)N2CCN1C(=O)N(C)[C@H](C)c1cc(C(F)(F)F)cc(C(F)(F)F)c1 [Compound 60, (1S,8aS)—N—((R)-1-(3,5-bis(trifluoromethyl)phenyl)ethyl)-N-methyl-1-(3-methyl-1H-pyrazol-4-yl)-6-oxohexahydropyrrolo[1,2-a]pyrazine-2(1H)-carboxamide]
